Measurements: patent US6362369B1, “Phthalic acid diamide derivatives fluorine-containing aniline compounds as starting material, agricultural and horticultural insecticides, and a method for application of the insecticides” (Nihon Nohyaku Co., Ltd., priority 1997, dated 2002)

Key:
Format in all cases: in vivo
[1] = test system: common cutworm (Spodoptera Litura); assay: Insecticidal effect on common cutworm (Test Example 2); conditions: 500 ppm, 25° C.; for Insecticidal effect on common cutworm (Test Example 2), judged grade / Insecticidal effect (Test Example 2), judged from mortality: cabbage leaf dip; for Insecticidal effect on common cutworm (Test Example 2), judged grade: second-instar larvae; for Insecticidal effect on common cutworm (Test Example 2), judged grade / Insecticidal effect, Test Example 2: eight days after inoculation; for Insecticidal effect, Test Example 2: cabbage leaf immersed; for Insecticidal effect (Test Example 2), judged from mortality: 8 days after inoculation
Outline: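 Mortality is the read-out: larvae are counted as dead or alive on day 8 and the percentage is graded by an effect criterion. Second-instar larvae are kept with the air-dried treated material in a sealed dish at 25° C, in triplicate groups of ten.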

[2] = test system: rice leafroller (Cnaphalocrocis medinalis); assay: Insecticidal effect on rice leafroller (Test Example 3); conditions: 500 ppm, 25° C., humidity 70%; for Insecticidal effect on rice leafroller (Test Example 3), judged grade / Insecticidal effect (Test Example 3), judged from mortality: rice lamina dip; for Insecticidal effect on rice leafroller (Test Example 3), judged grade: third-instar larvae; for Insecticidal effect on rice leafroller (Test Example 3), judged grade / Insecticidal effect, Test Example 3: four days after inoculation; for Insecticidal effect, Test Example 3: rice lamina immersed; for Insecticidal effect (Test Example 3), judged from mortality: 4 days after inoculation
Outline: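 Insecticidal effect is judged by a predefined criterion from dead/alive counts four days after infesting air-dried lamina with third-instar larvae, kept on moistened filter paper at 25° C, 70% humidity.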

[3] = test system: diamondback moth (Plutella xylostella); assay: Insecticidal effect on diamondback moth (Test Example 1); conditions: for Insecticidal effect on diamondback moth (Test Example 1), judged grade: mortality judged according to the criterion shown in Test Example 1; for Insecticidal effect, Test Example 1 / Insecticidal effect (Test Example 1), judged from mortality: diamondback moth; for Insecticidal effect (Test Example 1), judged from mortality: judged by the criterion of Test Example 1
Outline: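 Oviposition by adults on Chinese cabbage seedling; immersion; air-dry; 25° C room. Count of hatched larvae at day 6 post-immersion → mortality → effect graded by criterion. Triplicate, 10 insects/group.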

[4] = second-instar larvae of common cutworm
[5] = third-instar larvae of rice leafroller
[6] = judged by the mortality criterion of Test Example 1
[7] = common cutworm second-instar larvae
[8] = rice leafroller third-instar larvae
[9] = mortality judged by criterion of Test Example 1

| Structure (SMILES) | Insecticidal effect on common cutworm (Test Example 2), judged grade [1] | Insecticidal effect on rice leafroller (Test Example 3), judged grade [2] | Insecticidal effect on diamondback moth (Test Example 1), judged grade [3] | Insecticidal effect, Test Example 2 [1, 4] | Insecticidal effect, Test Example 3 [2, 5] | Insecticidal effect, Test Example 1 [3, 6] | further results |
| --- | --- | --- | --- | --- | --- | --- | --- |
| Cc1cc(OC(F)F)ccc1NC(=O)c1c(I)cccc1C(=O)NC(C)C [compound 469] | A (100) | D (79-50) | A (100) | – | – | – | – |
| Cc1cc(OC(F)(F)C(F)(Br)C(F)(F)F)ccc1NC(=O)c1cccc(F)c1C(=O)NC(C)C (stereo not drawn) [compound 516] | A (100) | A (100) | A (100) | – | – | – | – |
| CC(C)NC(=O)c1c(Cl)cccc1C(=O)Nc1ccc(Cl)cc1Cl [compound 112] | – | – | – | A (100) | A (100) | A (100) | – |
| C=CC(C)(C)NC(=O)c1c(Cl)cccc1C(=O)Nc1ccc(C(F)(F)C(F)(F)F)cc1C [compound 1569] | – | – | – | – | – | – | Insecticidal effect (Test Example 2), judged from mortality [1, 4]: A (100); Insecticidal effect (Test Example 3), judged from mortality [2, 5]: A (100); Insecticidal effect (Test Example 1), judged from mortality [3]: A (100) |
| Cc1cc(OC(F)(F)C(F)Cl)ccc1NC(=O)c1c(F)cccc1C(=O)NC(C)C (stereo not drawn) [compound 567] | D (79-50) | D (79-50) | A (100) | – | – | – | – |
| CCNC(=O)c1cccc(I)c1C(=O)Nc1ccc(C(F)(C(F)(F)F)C(F)(F)F)cc1C [compound 1074] | – | – | – | – | – | – | Insecticidal effect, Test Example 2 [1, 7]: A (100); Insecticidal effect, Test Example 3 [2, 8]: A (100); Insecticidal effect, Test Example 1 [3, 9]: A (100) |
| Cc1cc(OC(F)(F)C(F)(Cl)Cl)ccc1NC(=O)c1c(F)cccc1C(=O)NC(C)C [compound 553] | C (89-80) | A (100) | A (100) | – | – | – | – |
| Cc1cc(Cl)ccc1NC(=O)c1cccc(Br)c1C(=O)NC(C)C [compound 267] | – | – | – | A (100) | A (100) | A (100) | – |
| Cc1cc(OC(F)F)ccc1NC(=O)c1c(F)ccc(F)c1C(=O)NC(C)C [compound 581] | B (99-90) | A (100) | A (100) | – | – | – | – |
| CC(C)(C)NC(=O)c1c(I)cccc1C(=O)Nc1ccc(SC(F)(F)F)cc1 [compound 1127] | – | – | – | – | – | – | Insecticidal effect, Test Example 2 [1, 7]: A (100); Insecticidal effect, Test Example 3 [2, 8]: A (100); Insecticidal effect, Test Example 1 [3, 9]: A (100) |
| Cc1cc(OC(F)(F)F)ccc1NC(=O)c1cccc(Cl)c1C(=O)NC(C)(C)C [compound 944] | – | – | – | – | – | – | Insecticidal effect, Test Example 2 [1, 7]: A (100); Insecticidal effect, Test Example 3 [2, 8]: A (100); Insecticidal effect, Test Example 1 [3, 9]: A (100) |
| Cc1cc(Cl)ccc1NC(=O)c1c(Br)cccc1C(=O)NC(C)C [compound 306] | – | – | – | A (100) | A (100) | A (100) | – |
| Cc1cc(OC(F)F)ccc1NC(=O)c1cccc(F)c1C(=O)NC(C)(C)C [compound 1506] | – | – | – | – | – | – | Insecticidal effect (Test Example 2), judged from mortality [1, 4]: A (100); Insecticidal effect (Test Example 3), judged from mortality [2, 5]: A (100); Insecticidal effect (Test Example 1), judged from mortality [3]: A (100) |
| Cc1cc(C(F)(F)C(F)(F)F)ccc1NC(=O)c1cccc(Cl)c1C(=O)NC(C)c1cccc(Cl)c1 (stereo not drawn) [compound 1364] | – | – | – | – | – | – | Insecticidal effect, Test Example 2 [1, 7]: A (100); Insecticidal effect, Test Example 3 [2, 8]: A (100); Insecticidal effect, Test Example 1 [3, 9]: A (100) |
| Cc1cc(I)ccc1NC(=O)c1cccc(Cl)c1C(=O)NC(C)C [compound 122] | – | – | – | A (100) | A (100) | A (100) | – |
| Cc1cc(Br)ccc1NC(=O)c1cccc(Cl)c1C(=O)NC(C)C [compound 121] | – | – | – | A (100) | A (100) | A (100) | – |
